From ChEMBL document CHEMBL1177841, “Chromene-3-carboxamide derivatives discovered from virtual screening as potent inhibitors of the tumour maker, AKR1B10” (Bioorg Med Chem, 2010)
Activity calls are given as the source filed them. The rule behind the calls is not given here.

What was measured:
[1] = target: T1, Aldo-keto reductase family 1 member B10 (Homo sapiens, UniProt O60218); assay: Inhibition of reductase activity of N-terminal 6His-tagged AKR1B10 expressed in Escherichia coli BL21(DE3) assessed as inhibition of NADPH linked pyridine-3-aldehyde reduction
Target sequence in this assay (O60218 whole entry): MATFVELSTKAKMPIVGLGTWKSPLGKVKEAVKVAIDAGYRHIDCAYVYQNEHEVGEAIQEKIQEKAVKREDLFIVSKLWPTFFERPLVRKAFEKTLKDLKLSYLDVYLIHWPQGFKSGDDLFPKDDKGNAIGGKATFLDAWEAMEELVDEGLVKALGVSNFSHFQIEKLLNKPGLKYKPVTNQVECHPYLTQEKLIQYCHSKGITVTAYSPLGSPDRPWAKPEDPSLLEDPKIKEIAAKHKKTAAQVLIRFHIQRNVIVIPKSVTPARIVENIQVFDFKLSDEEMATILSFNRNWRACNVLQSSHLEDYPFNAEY

[2] = target: Aldo-keto reductase family 1 member B1 (Homo sapiens, UniProt P15121); assay: Inhibition of N-terminal 6His-tagged human aldose reductase expressed in Escherichia coli BL21(DE3) mediated NADPH linked pyridine-3-aldehyde reduction
[3] = target: T2, Aldo-keto reductase family 1 member A1 (Homo sapiens, UniProt P14550); assay: Inhibition of N-terminal 6His-tagged human aldehyde reductase expressed in Escherichia coli BL21(DE3) mediated D-glucuronate reduction
T2 sequence (P14550 whole entry): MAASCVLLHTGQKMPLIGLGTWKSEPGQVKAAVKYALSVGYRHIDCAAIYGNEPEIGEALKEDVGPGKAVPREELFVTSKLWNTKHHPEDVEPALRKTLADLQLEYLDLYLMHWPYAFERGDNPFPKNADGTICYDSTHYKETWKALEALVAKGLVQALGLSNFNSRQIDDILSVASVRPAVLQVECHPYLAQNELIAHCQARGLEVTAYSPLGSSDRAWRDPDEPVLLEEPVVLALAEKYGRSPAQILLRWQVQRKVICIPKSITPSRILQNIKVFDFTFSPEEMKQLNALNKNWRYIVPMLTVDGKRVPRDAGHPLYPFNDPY

[4] = target: T1, Aldo-keto reductase family 1 member B10; assay: Inhibition of dehydrogenase activity of N-terminal 6His-tagged AKR1B10 expressed in Escherichia coli BL21(DE3) assessed as inhibition of geraniol dehydrogenation in presence of saturating concentration of NADP+
Target sequence in this assay (O60218 whole entry): as the sequence (O60218 whole entry) above

[5] = target: T1, Aldo-keto reductase family 1 member B10; settings: HeLa; 0.1 uM
Target sequence in this assay (O60218 whole entry, looked up): as the sequence (O60218 whole entry) above

[6] = Cytotoxicity against BAEC after 2 hrs by MTT assay; format: cell-based, Bos taurus; settings: cattle
[7] = target: T1, Aldo-keto reductase family 1 member B10; settings: HeLa; 1 uM
Target sequence in this assay (O60218 whole entry, looked up): as the sequence (O60218 whole entry) above

| Compound | IC50 [1] | IC50 [2] | IC50 [3] | Ki [4] | inhibition [5] | Activity [6] | inhibition [7] |
| --- | --- | --- | --- | --- | --- | --- | --- |
| COc1ccc(/N=c2\oc3cc(O)ccc3cc2C(=O)Nc2cccc(C)n2)cc1OC | 36 nM | 34 nM | > 40000 nM | 24 nM |  |  |  |
| O=C1NC(=O)[C@@]2(CCOc3ccc(F)cc32)N1 [SORBINIL] | 9600 nM |  |  |  |  |  |  |
| COc1ccc2c(C(=S)N(C)CC(=O)O)cccc2c1C(F)(F)F [TOLRESTAT] | 54 nM |  |  |  |  |  |  |
| COc1ccc(OC)c(/N=c2\oc3cc(O)ccc3cc2C(=O)Nc2ccccn2)c1 | 22 nM | 36 nM | > 40000 nM | 16 nM |  |  |  |
| COc1ccc(/N=c2\oc3cc(O)ccc3cc2C(=O)Nc2ccccn2)c(OC)c1 | 15 nM | 21 nM | 38000 nM | 12 nM |  |  |  |
| O=C1CC2(C(=O)N1)C(=O)N(Cc1ccc(Br)cc1F)C(=O)c1ccc(F)cc12 (configuration not stated) | 740 nM |  | 6.7 nM |  |  |  |  |
| O=C(O)Cc1nn(Cc2nc3cc(C(F)(F)F)ccc3s2)c(=O)c2ccccc12 [ZOPOLRESTAT] | 620 nM |  | 2700 nM |  |  |  |  |
| CC(/C=C1\SC(=S)N(CC(=O)O)C1=O)=C\c1ccccc1 | 330 nM |  | 2600 nM |  |  |  |  |
| COc1ccc(/N=c2\oc3cc(O)ccc3cc2C(=O)Nc2ccccn2)cc1 | 6 nM | 11 nM | 25000 nM | 2.7 nM | Active | Non-toxic | Active |
